Test results published in patent US10168338B2, “Methods of identifying modulators of sestrin-gator-2 interaction for modulating mTORC1 activity” (Whitehead Institute for Biomedical Research, priority 2014, dated 2019).

Assays:
[1] = target: T1, GATOR2-Sestrin2 interaction (Homo sapiens, UniProt P58004); test: Sestrin2-GATOR2 interaction in HEK-293T cells after starvation/restimulation (co-immunoprecipitation); format: cell-based
T1 construct: To isolate the FLAG-WDR24/endogenous-Sestrin2 complex; endogenous in cells; host or cells: HEK-293T cells stably expressing FLAG-WDR24; Sestrin2 and the other GATOR2 subunits are endogenous
T1 sequence (P58004 1-480): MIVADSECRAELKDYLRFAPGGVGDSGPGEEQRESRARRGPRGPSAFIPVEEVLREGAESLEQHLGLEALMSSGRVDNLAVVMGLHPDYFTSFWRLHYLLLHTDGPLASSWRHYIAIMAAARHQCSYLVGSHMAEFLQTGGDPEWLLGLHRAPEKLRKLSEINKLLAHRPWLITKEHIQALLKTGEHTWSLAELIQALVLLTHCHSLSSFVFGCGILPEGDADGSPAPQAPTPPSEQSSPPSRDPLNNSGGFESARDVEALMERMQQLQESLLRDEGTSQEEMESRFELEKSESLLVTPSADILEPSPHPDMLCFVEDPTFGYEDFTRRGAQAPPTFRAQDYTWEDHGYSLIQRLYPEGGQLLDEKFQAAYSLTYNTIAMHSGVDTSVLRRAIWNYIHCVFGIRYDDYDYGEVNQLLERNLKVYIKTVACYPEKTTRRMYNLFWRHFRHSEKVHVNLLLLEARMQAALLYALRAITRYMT
Procedure: (§1) In order to determine the effect of amino acids on the GATOR2-Sestrin interaction, transfected cells were incubated in amino acid free RPMI for 50 minutes and then stimulated with amino acids for 10 minutes. For glucose starvation, cells were incubated in RPMI media lacking glucose but containing amino acids and dialyzed serum for 50 minutes, followed by a 10 minute restimulation with 5 mM D-Glucose. For insulin deprivation, cells were incubated in RPMI without serum for 50 minutes and restimulated with 1 μg/ml insulin for 10 minutes. Finally, when Torin1 or Rapamycin was used, cells were incubated with 250 nM of each throughout the starvation and restimulation period.
HEK-293T cells stably expressing FLAG-WDR24 or the control protein FLAG-metap2 (as described in Example 1) were starved for leucine, arginine, or all amino acids for 50 minutes. In some samples, cells were re-stimulated with leucine, arginine, or all amino acids for 10 minutes and then FLAG immunoprecipitates prepared from cell lysates. Immunoprecipitates and lysates were analyzed by immunoblotting for indicated proteins. Removal of either leucine or arginine from the cell media inhibited mTORC1 signaling, as indicated by S6K1 phosphorylation, to similar extents. Strikingly, however, only leucine starvation caused Sestrin2 to bind to GATOR2 inducing the interaction as effectively as complete amino acid starvation (FIG. 9A). […] Leucine starvation and stimulation also strongly regulated the interaction of endogenous Sestrin1, but not endogenous Sestrin3, with GATOR2 (Figure not shown).

[2] = target: T2, Sestrin2 (Homo sapiens, UniProt P58004); test: [3H]-labeled amino acid binding to FLAG-Sestrin2 immunoprecipitated from HEK-293T cells; settings: for Ki: 10 μM 3H-leucine, three experiments, read-out: inhibitory constant (Ki) for competing leucine binding to Sestrin2; for affinity for Sestrin2, times lower than the affinity of leucine: relative to leucine Kd
T2 construct: expressed in transfected cells; host or cells: HEK-293T, transient transfection of a pRK5-based cDNA plasmid, anti-FLAG immunoprecipitation
T2 sequence (P58004 1-480): T1 sequence (P58004 1-480)
Procedure: Four million HEK-293T cells were plated in a 15 cm plate four days prior to the experiment. Each plate yielded the protein for one sample. Forty-eight hours after plating, the cells were transfected via the polyethylenimine method (O. Boussif et al., PNAS (USA), 92:7297-7301 (1995)) with the pRK5-based cDNA expression plasmids indicated in the figures in the following amounts: 5 μgFLAG-Sestrin2; 12 μg of the negative control Rap2A; 5 μg WDR24; 2 μg WDR24 with 4 μg each of HA-Seh1L, HA-Sec13, HA-Mios, and HA-WDR59; 12 […] (CG11299-PD); 12 μgFLAG-Sestrin1.1; 12 μg FLAG-Sestrin1.2; 12 μg FLAG-Sestrin3; 12 μg FLAG-Sestrin2 mutants (L261A, E451A, S190A) and up to 20 μg total DNA with empty-PRK5. Forty-eight hours after transfection cells were lysed as described in Example 1. If multiple samples of the same type were represented in the experiment, the cell lysates were combined, mixed, and evenly distributed amongst the relevant tubes, to ensure equal protein amounts across samples of the same type.
Anti-FLAG immunoprecipitates were prepared as previously described, with the exception that, prior to incubation with lysates, the beads were blocked by rotating in 1 μg/μl bovine serum albumin (BSA) for 20 minutes at 4° C. and subsequently washed twice in lysis buffer. Thirty μl of the 50/50 slurry of beads in lysis buffer was added to each of the clarified cell lysates and incubated as previously described in Example 1.
For the binding assays, two tubes at a time were washed as previously indicated for immunoprecipitations. All the liquid was subsequently aspirated and a 15 μl aliquot of proteins bound to the beads was incubated for one hour on ice in cytosolic buffer (0.1% Triton, 40 mM HEPES pH 7.4, 10 mM NaCl, 150 mM KCl, 2.5 mM MgCl2) with the appropriate amount of [^3H]-labeled amino acids and unlabeled amino acids. Tubes were flicked every five minutes. At the end of one hour, the beads were briefly spun down, aspirated dry, and rapidly washed three times with binding wash buffer (0.1% Triton, 40 mM HEPES pH 7.4, 150 mM NaCl). The beads were aspirated dry again and resuspended in 85 μl of binding wash buffer. With a cut tip, each sample was mixed well and three 10 μl aliquots were separately quantified using a TriCarb® scintillation counter (PerkinElmer). This process was repeated in pairs for each sample, to ensure similar incubation and wash times for all samples analyzed across different experiments.
Amino acid affinities to Sestrin2 were determined by first normalizing the bound [^3H]-labeled amino acid concentrations across three separate binding assays performed with varying amounts of unlabeled amino acid competition. These values were plotted and fit to a hyperbolic equation ([…]) to estimate the IC50 value. Kd or Ki values were derived from the IC50 value using the equation: Kd or Ki=IC50/(1+([[^3H]Leucine])/Kd).

[3] = target: T3, Sestrin-GATOR2 interaction (Homo sapiens, UniProt P58004); test: Effect of specific amino acids on Sestrin-GATOR2 interaction (FLAG-WDR24 immunoprecipitation, immunoblot); format: cell-based; settings: HEK-293T stably expressing FLAG-WDR24; starvation/restimulation, pre- or post-lysis addition, washes of immunoprecipitates
T3 construct: To isolate the FLAG-WDR24/endogenous-Sestrin2 complex; endogenous in cells; host or cells: HEK-293T cells stably expressing FLAG-WDR24; Sestrin2 and the other GATOR2 subunits are endogenous
T3 sequence (P58004 1-480): T1 sequence (P58004 1-480)
Procedure: In order to further explore if specific amino acid levels affected the Sestrin-GATOR2 interaction, HEK-293T cells stably expressing the FLAG-tagged GATOR2 component WDR24 (and FLAG-tagged metap2 as a control) were starved of either all amino acids (ALL); only leucine, arginine, and lysine (LRK); only leucine (L); only arginine (R); or only lysine (K) for 50 minutes, or starved for 50 minutes and restimulated for 10 minutes with the indicated amino acids.
HEK-293T cells stably expressing the FLAG-tagged GATOR2 component WDR24 were starved of all amino acids for 50 minutes. Individual amino acids were added pre-lysis to the cell culture media or post-lysis to cell lysates prior to FLAG immunoprecipitation.
Finally, HEK-293T cells stably expressing the FLAG-tagged GATOR2 component WDR24 were starved of all amino acids for 50 minutes. Immunoprecipitates were subjected to washes containing the indicated amounts of leucine or arginine and analyzed along with cell lysates by immunoblotting for the indicated proteins as shown in FIG. 8C.

[4] = system: mTORC1; test: mTORC1 signaling in HEK-293T cells (S6K1 phosphorylation immunoblot); format: cell-based, human; settings: v-ATPase inhibition
Procedure: Immunoprecipitated proteins were denatured by the addition of 50 μl of sample buffer and boiling for 5 minutes as described (Kim et al., 2002), resolved by 8%-16% SDS-PAGE, and analyzed by immunoblotting using the appropriate antibody (antibodies to phospho-T389 S6K1, S6K1, Sestrin2, mTOR, Mios and FLAG all obtained from Cell Signaling Technology; antibodies to WDR24 and WDR59 were generously provided by Jianxin Xie at Cell Signaling Technology).
as §1

[5] = target: T4, Sestrin2-GATOR2 complex (Homo sapiens, UniProt P58004); test: Amino acids added directly to immunopurified Sestrin2-GATOR2 complexes (immunoblot); format: binding; settings: for effect on the Sestrin2-GATOR2 interaction in vitro: 300 μM each, added directly to FLAG immunoprecipitates; for concentration acting on Sestrin2-GATOR2 complex, fold greater than leucine: added to purified complexes, relative to leucine
T4 construct: To isolate the FLAG-WDR24/endogenous-Sestrin2 complex; endogenous in cells; host or cells: HEK-293T cells stably expressing FLAG-WDR24; Sestrin2 and the other GATOR2 subunits are endogenous
T4 sequence (P58004 1-480): T1 sequence (P58004 1-480)
Procedure: We next tested if leucine acts directly on the Sestrin2-GATOR2 complex.
HEK-293T cells stably expressing FLAG-WDR24 were starved for all amino acids for 50 minutes, lysed and subjected to anti-FLAG immunoprecipitation as described previously. The GATOR2-Sestrin2 complexes immobilized on the agarose beads were washed twice in lysis buffer with 500 mM NaCl, as previously described, and then incubated for 10 minutes in 1 mL of cytosolic buffer with the indicated concentrations of individual amino acids. The amount of GATOR2 and Sestrin2 that remained bound was assayed by SDS-PAGE and immunoblotting as described previously.

CCC(=O)N1CCN(c2ccc(-n3c(=O)ccc4cnc5ccc(-c6cnc7ccccc7c6)cc5c43)cc2C(F)(F)F)CC1 [Torin1]
effect of pretreatment on the amino acid-induced decrease in the GATOR2-Sestrin2 interaction ([1]; 250 nM throughout starvation and restimulation): did not prevent the amino acid-induced decrease in the GATOR2-Sestrin2 interaction

N=C(N)NCCC[C@H](N)C(=O)O [arginine]
binding of radiolabeled amino acid to Sestrin2 ([2]; FLAG-Sestrin2 from HEK-293T, competed by excess unlabeled leucine): did not bind
disruption of the Sestrin-GATOR2 interaction [3]: but not arginine or lysine, disrupts the Sestrin-GATOR2 interaction

C/C=C/[C@H]1O[C@@](O)([C@@H](C)[C@H](O)[C@H](C)[C@H]2OC(=O)/C(OC)=C/C(C)=C/[C@@H](C)[C@@H](O)[C@@H](CC)[C@@H](O)[C@H](C)C/C(C)=C/C=C/[C@@H]2OC)C[C@@H](O[C@H]2C[C@@H](O)[C@H](OC(N)=O)[C@@H](C)O2)[C@@H]1C [concanamycin A]
effect on the interaction between Sestrin2 and GATOR2 ([1]; in the absence of amino acids): reduced the interaction between Sestrin2 and GATOR2
effect on mTORC1 signaling [4]: decreased mTORC1 signaling

CC[C@H](C)[C@H](N)C(=O)O [isoleucine]
effect on the Sestrin2-GATOR2 interaction in vitro [5]: had any effect on the Sestrin2-GATOR2 interaction
concentration acting on Sestrin2-GATOR2 complex, fold greater than leucine [5]: ~25 fold
Ki [2]: 616 ± 273 µM
affinity for Sestrin2, times lower than the affinity of leucine [2]: ~30 times

NCCCC[C@H](N)C(=O)O [lysine]
disruption of the Sestrin-GATOR2 interaction [3]: but not arginine or lysine, disrupts the Sestrin-GATOR2 interaction

CSCC[C@H](N)C(=O)O [methionine]
effect on the Sestrin2-GATOR2 interaction in vitro [5]: had any effect on the Sestrin2-GATOR2 interaction
concentration acting on Sestrin2-GATOR2 complex, fold greater than leucine [5]: approximately 10 fold
Ki [2]: 354 ± 118 µM
affinity for Sestrin2, times lower than the affinity of leucine [2]: approximately 18 times

CC(C)[C@H](N)C(=O)O [valine]
effect on the Sestrin2-GATOR2 interaction in vitro [5]: had any effect on the Sestrin2-GATOR2 interaction

insulin
regulation of the Sestrin2-GATOR2 interaction by insulin treatment ([1]; serum-free 50 minutes, 1 μg/ml insulin 10 minutes): did not regulate the Sestrin2-GATOR2 interaction
